The test system of experiment [1] is bloodstream form T. b. brucei parasites. The experiment in a line: Resazurin-based anti-trypanosomal assay on bloodstream form T. b. brucei parasites. In kind it is cell-based, Trypanosoma brucei brucei. The procedure: Bloodstream form T. b. brucei Lister 927 variant 221 strain parasites were cultured in filter sterilized complete Iscoves Modified Dulbeccos Media (IMDM) based HM1-9 medium (IMDM base powder, […] sodium bicarbonate, 1 mM hypoxanthine, 1 mM sodium pyruvate, 0.16 mM thymidine, 0.05 mM bathocuprone sulphate acid, 10% (v/v) heat inactivated foetal bovine serum, 1.5 mM L-cysteine, 0.2 mM β-mercaptoethanol, pH 7.5) in a humidified chamber at 37 °C with an atmosphere of 5% CO2. Parasite growth was monitored using a Neubauer haemocytometer to count the cell number, after which cells were diluted, according to their density, in the described pre-warmed media.
All compounds of interest were resuspended to stocks of 30 mM in DMSO and stored at −80 °C prior to use in in vitro experiments. For assessment of anti-trypanosomal activity, compounds were added to in vitro cultures of bloodstream form T. b. brucei parasites (1 × 10^5 cells/mL) in 96-well plates at a fixed concentration of 20 μM. After an incubation period of 48 h, the number of parasites surviving drug exposure were determined using a resazurin-based cytotoxicity assay. Resazurin is an oxidation–reduction sensitive dye that is reduced by living cells to resorufin. Resorufin is a fluorophore (Excitation560/Emission590) and thus was quantified in a multi-well fluorescence plate reader. Results are expressed as % parasite viability—the resorufin fluorescence in small molecule-treated wells relative to untreated controls. Assessment of each small molecule was conducted in duplicate, with error bars representing standard deviation (SD). […] The compounds were added to in vitro cultures of bloodstream form T. b. brucei parasites (1 × 10^5 cells/mL) in 96-well plates in a 3-fold dilution series with 100 μM as the highest concentration. After an incubation period of 48 h, the number of parasites surviving drug exposure were determined as previously mentioned. The % parasite viability was determined as previously mentioned. The IC50 (the concentration of compound required to decrease cell viability of T. b. brucei parasites by 50% compared to those grown in the absence of the compound) values for each of the compounds were determined from a dose–response curve by non-linear regression generated using GraphPad Prism® (v. 7.0; San Diego, CA, USA) software. For comparative purposes, pentamidine at a fixed concentration of 1 μM was employed as a drug standard.
In general terms: The colour change of resazurin is a common sign of viable cells or microbes.

A further experiment has as its target T1, TbHsp70 / Tbj2 (Trypanosoma brucei brucei, UniProt P11145).
T1 construct: His-tag; made in house; host or cells: Escherichia coli (Tbj2: E. coli BL21 (DE3))
The experiment in a line: Tbj2-stimulated ATPase activity assay, TbHsp70. In kind it is biochemical. The conditions noted are these: TbHsp70, 150 μM, Figure 5A. The procedure: (§1) The determination of the ATPase activity of the Hsp70 proteins was performed using the high throughput colorimetric ATPase assay kit (Innova Biosciences, Cambridge, UK). This method enables the quantification of the inorganic phosphate (Pi) released from ATP hydrolysis by an enzyme. Briefly, the molecular chaperones were prepared in ATPase assay buffer (100 mM Tris-HCl, 7.5, 2 mM MgCl2, 50 mM KCl, 0.5 mM DTT) and incubated with ATP (0–2 mM) for 1 h at 37 °C. […] The samples containing Pi hydrolysed from ATP were incubated with the PiColorLock™ solution, which is a malachite green dye solution that in the presence of Pi changes absorbance due to generation of molybdate-phosphate complexes. The absorbance was measured at 595 nm using a Powerwave 96-well plate reader (BioTek Instruments, Inc., Winooski, VT, USA), and absorbance values were converted to phosphate concentrations using a standard curve of absorbance vs. phosphate concentration based on a set of Pi standards provided by the supplier assayed along with the samples. All samples were corrected for spontaneous breakdown of ATP observed in a control experiment in the absence of protein. The trypanosomal and human Hsp70s were used at 0.8 μM, and the J-proteins were used at 0.4 μM. An initial screen of the modulatory effects of the compounds on the ATPase activity of the Hsp70s was conducted using 300 μM of the compounds. Compounds identified to have a modulatory effect on the basal and J-protein-stimulated ATPase activity of Hsp70 were used at varying concentrations. The modulatory effect of the selected compounds on the basal and J-protein stimulated ATPase activity of the T. brucei Hsp70s was represented as fold change with the basal and J-protein stimulated ATPase activity of the Hsp70s taken as 1 respectively. These experiments were conducted on three independently purified batches of proteins, but due to limited availability of the selected compounds, each assay was conducted in duplicate on each batch of protein. In control reactions to evaluate the effect of DMSO on basal and J-protein stimulated ATPase activity of the Hsp70s, the solvent was added to a final concentration of 1% (v/v) in the assay. The assays were performed in duplicate on three independently purified batches of proteins.

Another experiment concerns TbHsp70.4 / Tbj2. The experiment in a line: Tbj2-stimulated ATPase activity assay, TbHsp70.4. In kind it is biochemical, Trypanosoma brucei. The conditions noted are these: TbHsp70.4, 150 μM, Figure 5B. The procedure:
as §1

Where [2] appears, read: Trypanosoma brucei, T. b. brucei parasites, stated as bound, read-out: IC50 values.
Setting [3] is: Trypanosoma brucei, Table 1, T. b. brucei parasites cultured in vitro, 48 h, dose-response, read-out: IC50/μM.
Where [4] appears, read: Trypanosoma brucei, Table S1, 48 select compounds, T. b. brucei, 48 h, read-out: IC50/.

Like-named read-outs stand apart in the source and are kept apart here.

T1 sequence (P11145 whole entry): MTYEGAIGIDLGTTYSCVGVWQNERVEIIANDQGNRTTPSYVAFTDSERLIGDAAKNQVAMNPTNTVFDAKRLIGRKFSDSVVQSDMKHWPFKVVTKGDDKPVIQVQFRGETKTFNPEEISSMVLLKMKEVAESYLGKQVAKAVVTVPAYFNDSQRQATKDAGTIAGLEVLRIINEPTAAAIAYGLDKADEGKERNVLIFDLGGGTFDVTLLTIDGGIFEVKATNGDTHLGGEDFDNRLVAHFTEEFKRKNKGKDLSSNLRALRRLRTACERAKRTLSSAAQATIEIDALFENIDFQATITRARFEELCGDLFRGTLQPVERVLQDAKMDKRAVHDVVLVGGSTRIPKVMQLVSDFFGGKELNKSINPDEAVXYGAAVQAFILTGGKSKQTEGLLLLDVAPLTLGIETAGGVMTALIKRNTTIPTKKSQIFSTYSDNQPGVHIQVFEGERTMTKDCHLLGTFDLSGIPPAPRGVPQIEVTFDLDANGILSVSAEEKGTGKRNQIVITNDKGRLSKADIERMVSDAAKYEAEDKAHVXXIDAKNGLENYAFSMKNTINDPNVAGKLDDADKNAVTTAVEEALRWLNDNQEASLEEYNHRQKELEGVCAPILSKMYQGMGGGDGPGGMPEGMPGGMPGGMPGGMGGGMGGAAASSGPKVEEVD

Turning to `CC(C)=CCC/C(C)=C/CC/C(C)=C/Cn1cnc2c1c(=O)[nH]c(=O)n2C` [Compound 31, 3-methyl-7-((2E,6E)-3,7,11-trimethyldodeca-2,6,10-trien-1-yl)-3,7-dihydro-1H-purine-2,6-dione], the results for the IC50 in experiment [1] (setting [2]), in experiment [1] (setting [3]) and in experiment [1] (setting [4]) were under 7 µM, 1.9 µM and 1.91 µM, respectively. Also, the “effect of order of addition (compound vs Tbj2) on inhibition of J-stimulated ATPase activity” value at TbHsp70 / Tbj2 and in the experiment on TbHsp70.4 / Tbj2 was “no significant difference” each time.
With `CC(C)=CCC/C(C)=C/CCC(C)=CCn1cnc2c1c(=O)[nH]c(=O)n2CC=C(C)CC/C=C(\C)CCC=C(C)C` [Compound 28, 3,7-Bis((6E)-3,7,11-trimethyldodeca-2,6,10-trien-1-yl)-3,7-dihydro-1H-purine-2,6-dione], the figures for the IC50 in experiment [1] (setting [2]), in experiment [1] (setting [3]) and in experiment [1] (setting [4]) were under 7 µM, 1.2 µM and 1.15 µM, respectively. For the same molecule, the “effect of order of addition (compound vs Tbj2) on inhibition of J-stimulated ATPase activity” value on TbHsp70 / Tbj2 and in the experiment on TbHsp70.4 / Tbj2 was “no significant difference” in each case.
`CC(C)=CCC/C(C)=C/CCC(C)=CCn1ccc(=N)n(CC=C(C)CC/C=C(\C)CCC=C(C)C)c1=O` [Compound 63, 4-imino-1,3-bis((6E)-3,7,11-trimethyldodeca-2,6,10-trien-1-yl)-3,4-dihydropyrimidin-2(1H)-one]: the IC50 in experiment [1] (setting [2]) is under 7 µM; in experiment [1] (setting [3]), 2.1 µM; in experiment [1] (setting [4]) it was 2.05 µM. Besides, the “effect of order of addition (compound vs Tbj2) on inhibition of J-stimulated ATPase activity” value on TbHsp70 / Tbj2 and in the experiment on TbHsp70.4 / Tbj2 was “no significant difference” each time.
Turning to `CC(C)=CCC/C(C)=C/CCC(C)=CCn1c(=O)[nH]c2c(=O)n(C)c(=O)n(C)c21` [Compound 44, 1,3-dimethyl-9-((6E)-3,7,11-trimethyldodeca-2,6,10-trien-1-yl)-7,9-dihydro-1H-purine-2,6,8(3H)-trione], the IC50 in experiment [1] (setting [3]) and in experiment [1] (setting [4]) was 16.6 µM in each case.
Take `CC(C)=CCC/C(C)=C/CC/C(C)=C/CC/C(C)=C\Cn1cnc2ncnc(Cl)c21` [Compound 21, 6-chloro-7-((2Z,6E,10E)-3,7,11,15-tetramethylhexadeca-2,6,10,14-tetraen-1-yl)-7H-purine]: the IC50 in experiment [1] (setting [3]) and in experiment [1] (setting [4]) was 19.1 µM each time.
As for `CC(C)=CCC/C(C)=C/Cn1cnc2c(Cl)ncnc21` [Compound 15, (E)-6-Chloro-9-(3,7-dimethylocta-2,6-dien-1-yl)-9H-purine], the IC50 in experiment [1] (setting [3]) and in experiment [1] (setting [4]) was 12.2 µM in each case.
For the molecule `CC(C)=CCC/C(C)=C/CC/C(C)=C/CC/C(C)=C\CNC=O` [Compound 76, N-((2Z,6E,10E)-3,7,11,15-Tetramethylhexadeca-2,6,10,14-tetraen-1-yl)formamide], the IC50 in experiment [1] (setting [3]) and in experiment [1] (setting [4]) was 11 µM each time.
In the case of `CC(C)=CCC/C(C)=C/CC/C(C)=C/CC/C(C)=C/Cn1cnc2c(N(C)C)ncnc21` [Compound 14, N,N-dimethyl-9-((2E,6E,10E)-3,7,11,15-tetramethylhexadeca-2,6,10,14-tetraen-1-yl)-9H-purin-6-amine], the values for the IC50 in experiment [1] (setting [3]) and in experiment [1] (setting [4]) were 9.2 µM and 9.22 µM, respectively.
Regarding `CC(=O)NC/C=C(/C)CC/C=C(\C)CC/C=C(\C)CCC=C(C)C` [Compound 84, N-((2Z,6E,10E)-3,7,11,15-Tetramethylhexadeca-2,6,10,14-tetraen-1-yl)acetamide], the values for the IC50 in experiment [1] (setting [3]) and in experiment [1] (setting [4]) were 2.2 µM and 2.17 µM, respectively.
With `CC(=O)N(C)C/C=C(\C)CC/C=C(\C)CC/C=C(\C)CCC=C(C)C` [Compound 88, N-Methyl-N-((2E,6E,10E)-3,7,11,15-tetramethylhexadeca-2,6,10,14-tetraen-1-yl)acetamide], the IC50 in experiment [1] (setting [3]) came out at 38.4 µM.
Regarding `CC(C)=CCC/C(C)=C/CCC(C)=CCn1cnc2c(N(C)C)ncnc21` [Compound 11, N,N-Dimethyl-9-((6E)-3,7,11-trimethyldodeca-2,6,10-trien-1-yl)-9H-purin-6-amine], the IC50 in experiment [1] (setting [3]) amounted to 9.5 µM; in experiment [1] (setting [4]), 9.48 µM.
As for “6-chloro-7-((2E,6E)-3,7,11-trimethyldodeca-2,6,10-trien-1-yl)-9H-purine [Compound 18]”, the IC50 stood at 9.3 µM in experiment [1] (Table 1, T. b. brucei parasites cultured in vitro, 48 h, dose-response, read-out: IC50/μM) and 9.28 µM in experiment [1] (Table S1, 48 select compounds, T. b. brucei, 48 h, read-out: IC50/).
Regarding `CC(C)=CCC/C(C)=C/CC/C(C)=C/CC/C(C)=C/Cn1ccnc1` [Compound 72, 1-((2E,6E,10E)-3,7,11,15-Tetramethylhexadeca-2,6,10,14-tetraen-1-yl)-1H-imidazole], the IC50 amounted to 3.4 µM in experiment [1] (setting [3]) and 3.42 µM in experiment [1] (setting [4]).
For `CC(C)=CCC/C(C)=C/CC/C(C)=C/CC/C(C)=C/Cn1cc(C)c(=O)[nH]c1=O` [Compound 59, 5-Methyl-1-((2E,6E,10E)-3,7,11,15-tetramethylhexadeca-2,6,10,14-tetraen-1-yl)pyrimidine-2,4(1H,3H)-dione], in experiment [1] (setting [3]), the IC50 stood at 15.8 µM.
Take `CC(C)=CCC/C(C)=C/CC/C(C)=C/CC/C(C)=C/CNC=O` [Compound 77, N-((2E,6E,10E)-3,7,11,15-tetramethylhexadeca-2,6,10,14-tetraen-1-yl)formamide]: the IC50 in experiment [1] (setting [3]) and in experiment [1] (setting [4]) was 41.8 µM each time.
For `N=C(N)c1ccc(OCCCCCOc2ccc(C(=N)N)cc2)cc1` [pentamidine, reference compound], in experiment [1] (Trypanosoma brucei, T. b. brucei parasites cultured in vitro, positive control, read-out: IC50 of drug standard), the IC50 amounted to 0.0053 µM.
As to `CC(C)=CCC/C(C)=C/Cn1cnc2c1c(=O)[nH]c(=O)n2C/C=C(\C)CCC=C(C)C` [Compound 27, 3,7-Bis((E)-3,7-dimethylocta-2,6-dien-1-yl)-3,7-dihydro-1H-purine-2,6-dione], the results for the IC50 in experiment [1] (setting [2]) and in experiment [1] (setting [3]) were under 7 µM and 2 µM, respectively. Further, the “effect of order of addition (compound vs Tbj2) on inhibition of J-stimulated ATPase activity” value on TbHsp70 / Tbj2 and with TbHsp70.4 / Tbj2 was “no significant difference” each time.
For `CC(C)=CCC/C(C)=C/CCC(C)=CCn1cnc2c(Cl)ncnc21` [Compound 17, 6-Chloro-9-((6E)-3,7,11-trimethyldodeca-2,6,10-trien-1-yl)-9H-purine], the IC50 in experiment [1] (setting [3]) and in experiment [1] (setting [4]) was 12.9 µM each time.
Regarding `CC(C)=CCC/C(C)=C/CC/C(C)=C/CC/C(C)=C/Cn1cnc2c1c(=O)[nH]c(=O)n2C` [Compound 33, 3-methyl-7-((2E,6E,10E)-3,7,11,15-tetramethylhexadeca-2,6,10,14-tetraen-1-yl)-3,7-dihydro-1H-purine-2,6-dione], the IC50 in experiment [1] (setting [3]) and in experiment [1] (setting [4]) was 10.2 µM each time.

The record behind these values is publication PMC7074166, “Screening for Small Molecule Modulators of Trypanosoma brucei Hsp70 Chaperone Activity Based upon Alcyonarian Coral-Derived Natural Products” (Marine Drugs, 2020).
